# Where two headings read alike, the source gives them in different places. No end group written: not given here.
# Tests used:
# Experiment in all cases: biochemical
# Format in all cases: binding
# HLA-A*6802 = HLA-A*6802 (Homo sapiens, UniProt P04439, A269V/D140Y/D185E/E176V/E277Q/E87N/F33Y/G231S/I121R/I166T/I218V/L180W/L300P/L318F/N151K/P208A/P217A/Q86R/R138H/R169H/S129P/T345S/V36M)
# HLA-A*0203 = HLA-A*0203 (Homo sapiens, UniProt P04439, A173T/D140Y/D185E/D98H/E277Q/G131W/G231S/I119V/I121R/I166T/I218V/L180W/L300P/L318F/N151K/N90K/P208A/P217A/Q86G/Q94H/R138H/R169H/T345S)
# HLA-A*0206 = HLA-A*0206 (Homo sapiens, UniProt P04439, D140Y/D185E/D98H/E176V/E277Q/F33Y/G131W/G231S/I119V/I121R/I166T/I218V/L300P/L318F/N151K/N90K/P208A/P217A/Q86G/Q94H/R138H/R169H/T345S)
# HLA-A*0202 = HLA-A*0202 (Homo sapiens, UniProt P04439, D140Y/D185E/D98H/E176V/E277Q/G131W/G231S/I119L/I121R/I166T/I218V/L180W/L300P/L318F/N151K/N90K/P208A/P217A/Q67R/Q86G/Q94H/R138H/R169H/T345S)
# HLA-A*0201 = HLA-A*0201 (Homo sapiens, UniProt P04439, D140Y/D185E/D98H/E176V/E277Q/G131W/G231S/I119V/I121R/I166T/I218V/L300P/L318F/N151K/N90K/P208A/P217A/Q86G/Q94H/R138H/R169H/T345S)
# [1] = A*6802 binding affinity (expressed as an IC50)
# [2] = A*0203 binding affinity (expressed as an IC50)
# [3] = A*0206 binding affinity (expressed as an IC50)
# [4] = A*0202 binding affinity (expressed as an IC50)
# [5] = A*0201 binding affinity (expressed as an IC50)
Compound,IC50 (HLA-A*6802; [1]),IC50 (HLA-A*0203; [2]),IC50 (HLA-A*0206; [3]),IC50 (HLA-A*0202; [4]),IC50 (HLA-A*0201; [5]),IC50 (HLA-A*6802),IC50 (HLA-A*0203),IC50 (HLA-A*0206),IC50 (HLA-A*0202),IC50 (HLA-A*0201)
ATYGIIVPV,21 nM,2.8 nM,5 nM,2 nM,3.2 nM,–,–,–,–,–
LIFHFFLFLL,460 nM,3170 nM,1560 nM,1470 nM,200 nM,–,–,–,–,–
ELVSEFSRV,23 nM,53 nM,197 nM,969 nM,8180 nM,–,–,–,–,–
ILWQVDRM,–,–,–,–,–,> 19500 nM,3000 nM,11300 nM,67 nM,1750 nM
VLRLFVCFLI,45600 nM,299 nM,68200 nM,2110 nM,2740 nM,–,–,–,–,–
LQLPPLERLTV,–,–,–,–,–,> 61100 nM,6270 nM,52 nM,4540 nM,159 nM
YLLGPGPGGI,2060 nM,3.3 nM,89 nM,12 nM,180 nM,–,–,–,–,–
PVPLQLPPV,–,–,–,–,–,> 15600 nM,12600 nM,81 nM,> 7340 nM,10000 nM
WLNYTPGPGT,–,–,–,–,–,11800 nM,231 nM,> 31600 nM,124 nM,547 nM
YTPGPGIRYPV,9.2 nM,11100 nM,1110 nM,1990 nM,7760 nM,–,–,–,–,–
YLGPGPGAGI,315 nM,4.2 nM,548 nM,1 nM,161 nM,–,–,–,–,–
LTFGWCFKV,–,–,–,–,–,9.7 nM,1170 nM,187 nM,33 nM,15 nM
MTGNPSIPV,–,–,–,–,–,0.57 nM,0.43 nM,257 nM,1.1 nM,16 nM
TLGPGPGHL,27900 nM,66 nM,12100 nM,35 nM,15000 nM,–,–,–,–,–
GLGAVSRDL,–,–,–,–,–,> 16700 nM,1730 nM,> 10400 nM,436 nM,18700 nM
LLGPGPGV,5620 nM,123 nM,93 nM,49 nM,25 nM,–,–,–,–,–
MMIMIKFMGV,39 nM,25 nM,109 nM,19 nM,123 nM,–,–,–,–,–
FMGVIYIMI,14500 nM,26 nM,98 nM,2.1 nM,13 nM,–,–,–,–,–
MTSNPPIPV,3.8 nM,0.39 nM,250 nM,16 nM,53 nM,–,–,–,–,–
GVLGWSPQV,–,–,–,–,–,9430 nM,389 nM,28 nM,157 nM,22 nM
CC(C)C[C@H](NC(=O)[C@H](CCCNC(=N)N)NC(=O)[C@H](CC(C)C)NC(=O)[C@@H](NC(=O)[C@H](C)NC(=O)[C@@H](NC(=O)CNC(=O)[C@H](CC(=O)O)NC(=O)[C@H](CC(C)C)NC(=O)[C@@H](N)CC(C)C)[C@@H](C)O)[C@@H](C)O)C(=O)O,> 421000 nM,201 nM,841 nM,1.9 nM,180 nM,–,–,–,–,–

Compound,IC50 (HLA-A*6802; [1]),IC50 (HLA-A*0203; [2]),IC50 (HLA-A*0206; [3]),IC50 (HLA-A*0202; [4]),IC50 (HLA-A*0201; [5]),IC50 (HLA-A*6802),IC50 (HLA-A*0203),IC50 (HLA-A*0206),IC50 (HLA-A*0202),IC50 (HLA-A*0201)
YVDDVVLGV,354 nM,70 nM,16 nM,14 nM,18 nM,–,–,–,–,–
VLAEAMSKV,329 nM,1.4 nM,93 nM,1.8 nM,230 nM,–,–,–,–,–
VLAEAMSRA,–,–,–,–,–,229 nM,1 nM,20 nM,0.88 nM,127 nM
MLLSVPLLL,24600 nM,41 nM,8.4 nM,79 nM,9 nM,–,–,–,–,–
EILDLWVYHV,–,–,–,–,–,163 nM,1870 nM,2230 nM,569 nM,496 nM
QLFEDKYAL [QLFEDKYAL],2980 nM,380 nM,2010 nM,1.8 nM,646 nM,–,–,–,–,–
RTLHDLCQA,61600 nM,678 nM,96 nM,34 nM,8120 nM,–,–,–,–,–
YLLTGPGPGI,5680 nM,59 nM,60 nM,15 nM,42 nM,–,–,–,–,–
MTSNPPVPV,1.1 nM,0.8 nM,81 nM,29 nM,22 nM,–,–,–,–,–
LLWQPIPV,32900 nM,9.9 nM,4250 nM,2440 nM,137 nM,–,–,–,–,–
FAPGFFPYL,7.6 nM,44 nM,2.3 nM,0.85 nM,48 nM,–,–,–,–,–
KLTPLCVSL,5950 nM,240 nM,16 nM,2.4 nM,67 nM,–,–,–,–,–
LLLPPLERLTL,–,–,–,–,–,> 12800 nM,9010 nM,45 nM,2610 nM,34 nM
VLAKEGPGPGL,51000 nM,37 nM,59000 nM,6.9 nM,1890 nM,–,–,–,–,–
VLVHPQWVV,14600 nM,1990 nM,3220 nM,65 nM,464 nM,–,–,–,–,–
KLTPFCVTL,–,–,–,–,–,11800 nM,28 nM,78 nM,0.37 nM,87 nM
VLAEAMATA,33 nM,0.73 nM,8.6 nM,1.4 nM,6.7 nM,–,–,–,–,–
FLKEKGGLDGV,–,–,–,–,–,3810 nM,11 nM,3210 nM,3.7 nM,332 nM
FLPSGPGPGV,40 nM,3.4 nM,64 nM,1.2 nM,21 nM,–,–,–,–,–
VVQAGFFLV,617 nM,2500 nM,81 nM,79 nM,440 nM,–,–,–,–,–

# From patent US20060079453A1, “Hla binding peptides and their uses” (priority 2002, published 2006)
